The results in this text go back to PubChem BioAssay (NCI).

Among the test systems are MOLT-4 leukemia; HOP-92 NSCLC; SK-MEL-2 melanoma; SK-MEL-5 melanoma; OVCAR-8 ovarian; SN12C renal; HOP-62 NSCLC; NCI/ADR-RES ovarian; SK-OV-3 ovarian; UACC-62 melanoma; UACC-257 melanoma; SR leukemia.
Holding throughout (experiment): NCI-60 cell line screen, 48 h

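Five concentrations, 48 hours, 96-well plates. TGI: concentration producing complete growth inhibition.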

Take `CC1(C)C2CC1C(/C=N\OCC(=O)O)=CC2=O` (centres undefined): the TGI in the assay with MOLT-4 leukemia, with HOP-92 NSCLC, in the assay with SK-MEL-2 melanoma, with SK-MEL-5 melanoma, in the assay on OVCAR-8 ovarian and with SN12C renal was > 100 µM each time. Further, the TGI in the assay on HOP-62 NSCLC, in the assay on NCI/ADR-RES ovarian, in the assay on SK-OV-3 ovarian, in the assay on UACC-62 melanoma, in the assay with UACC-257 melanoma and with SR leukemia was > 100 µM each time.

As to `Cc1ccc([N+](=O)[O-])cc1S(=O)(=O)Nc1ccc(C2=NOC(c3ccccc3)C2)cc1` (centres undefined), the TGI was 9.23 µM in the assay with MOLT-4 leukemia; 61.2 µM in the assay on HOP-92 NSCLC; 21.3 µM in the assay with SK-MEL-2 melanoma; 20.1 µM with SK-MEL-5 melanoma; > 100 µM in the assay with OVCAR-8 ovarian; 71.7 µM in the assay with SN12C renal. Besides, the TGI with HOP-62 NSCLC turned out to be 22.9 µM; in the assay with NCI/ADR-RES ovarian, 67.3 µM; with SK-OV-3 ovarian, 56.5 µM; with UACC-62 melanoma, 18.3 µM; with UACC-257 melanoma it was 79.6 µM; in the assay with SR leukemia it was 12.1 µM.

Consider `Clc1ccccc1-c1nn2c(CCCCCCCCc3nnc4sc(-c5ccccc5Cl)nn34)nnc2s1`, for which the TGI in the assay with MOLT-4 leukemia, in the assay on HOP-92 NSCLC, in the assay with SK-MEL-2 melanoma, in the assay with SK-MEL-5 melanoma, in the assay with OVCAR-8 ovarian and in the assay on SN12C renal was > 100 µM throughout. The TGI in the assay with HOP-62 NSCLC, with NCI/ADR-RES ovarian, in the assay on SK-OV-3 ovarian, in the assay on UACC-62 melanoma, in the assay with UACC-257 melanoma and in the assay on SR leukemia was > 100 µM throughout.

Regarding `COc1ccc(C[C@H]2NC[C@H](OC(C)=O)[C@H]2OC(C)=O)cc1`, the TGI is 1.98 µM in the assay with MOLT-4 leukemia; 0.356 µM in the assay with HOP-92 NSCLC; 0.627 µM in the assay with SK-MEL-2 melanoma; 0.345 µM in the assay with SK-MEL-5 melanoma; 2 µM with OVCAR-8 ovarian; 0.752 µM in the assay on SN12C renal. Also, the TGI in the assay with HOP-62 NSCLC is 2.75 µM; in the assay on NCI/ADR-RES ovarian, 0.788 µM; in the assay on SK-OV-3 ovarian it was 2.56 µM; with UACC-62 melanoma, 4.23 µM; in the assay on UACC-257 melanoma, 2.98 µM; in the assay on SR leukemia, 3.45 µM.

For the molecule `Cc1cc2c(c(C=Nc3ccc(N(C)C)cc3)c1)OC1(C=C2)Oc2ccccc2C(=O)N1C` (centres undefined), the TGI with MOLT-4 leukemia is 23.5 µM; with HOP-92 NSCLC, 44.8 µM; in the assay on SK-MEL-2 melanoma, > 54.8 µM; in the assay on SK-MEL-5 melanoma, 27.6 µM; in the assay with OVCAR-8 ovarian, 42.9 µM; in the assay with SN12C renal it was 30 µM. In addition, the TGI in the assay on HOP-62 NSCLC was > 67.5 µM; with NCI/ADR-RES ovarian, > 60.7 µM; with SK-OV-3 ovarian it was 66.6 µM; in the assay on UACC-62 melanoma it was 26.7 µM; with UACC-257 melanoma, 28.1 µM; in the assay on SR leukemia it was > 100 µM.

Take `O=c1oc2ccccc2cc1-c1nc2ccccc2c(=O)[nH]1`: the TGI in the assay on MOLT-4 leukemia, in the assay on HOP-92 NSCLC, with SK-MEL-2 melanoma, with SK-MEL-5 melanoma, in the assay with OVCAR-8 ovarian and with SN12C renal was > 100 µM each time. The TGI in the assay with HOP-62 NSCLC, in the assay on NCI/ADR-RES ovarian, with SK-OV-3 ovarian, with UACC-62 melanoma, in the assay with UACC-257 melanoma and in the assay on SR leukemia was > 100 µM in each case.

On to `CC(C)(C)c1cc(C(C)(C)C)c(P=C(Cl)Cl)c(C(C)(C)C)c1` (centres undefined), for which the TGI in the assay on MOLT-4 leukemia, with HOP-92 NSCLC, in the assay on SK-MEL-2 melanoma, in the assay on SK-MEL-5 melanoma, in the assay with OVCAR-8 ovarian and in the assay on SN12C renal was > 100 µM throughout. For the same molecule, the TGI in the assay on HOP-62 NSCLC, in the assay with NCI/ADR-RES ovarian, in the assay on SK-OV-3 ovarian, with UACC-62 melanoma, in the assay on UACC-257 melanoma and in the assay with SR leukemia was > 100 µM in each case.

For the molecule `COC(=O)/C=C/COCC1C2CCC(=O)C21` (centres undefined), the TGI in the assay with MOLT-4 leukemia, with HOP-92 NSCLC, in the assay with SK-MEL-2 melanoma, in the assay with SK-MEL-5 melanoma, in the assay on OVCAR-8 ovarian and in the assay on SN12C renal was > 100 µM in each case. For the same molecule, the TGI in the assay with HOP-62 NSCLC, in the assay on NCI/ADR-RES ovarian, with SK-OV-3 ovarian, in the assay with UACC-62 melanoma, with UACC-257 melanoma and with SR leukemia was > 100 µM each time.

Take `Cc1nc2ccc(S(=O)(=O)Nc3ccccn3)cc2c(=O)n1NS(=O)(=O)c1ccccn1`: the TGI with MOLT-4 leukemia, with HOP-92 NSCLC, with SK-MEL-2 melanoma, in the assay with SK-MEL-5 melanoma, in the assay with OVCAR-8 ovarian and with SN12C renal was > 100 µM in each case. Also, the TGI in the assay with HOP-62 NSCLC, in the assay with NCI/ADR-RES ovarian, in the assay on SK-OV-3 ovarian, in the assay on UACC-62 melanoma, in the assay with UACC-257 melanoma and with SR leukemia was > 100 µM in each case.

Regarding `O=C1CSC2(CC(/C=C/c3cccc(Br)c3)=NN2c2cccc(S(=O)(=O)O)c2)N1c1nc2ccccc2s1` (centres undefined), the TGI in the assay with MOLT-4 leukemia, in the assay with HOP-92 NSCLC, with SK-MEL-2 melanoma, with SK-MEL-5 melanoma, with OVCAR-8 ovarian and in the assay with SN12C renal was > 100 µM in each case. In addition, the TGI with HOP-62 NSCLC, in the assay with NCI/ADR-RES ovarian, in the assay with SK-OV-3 ovarian, in the assay on UACC-62 melanoma, with UACC-257 melanoma and with SR leukemia was > 100 µM in each case.

On to `CCOc1cc(NC(C)=O)ccc1C(=O)NN1C(=O)C(Cl)C1c1ccc(O)c(OC)c1` (centres undefined), for which the TGI came to 19 µM in the assay with MOLT-4 leukemia; 32.3 µM in the assay on HOP-92 NSCLC; 33.5 µM in the assay on SK-MEL-2 melanoma; 22.8 µM in the assay on SK-MEL-5 melanoma; 82.3 µM with OVCAR-8 ovarian; 31 µM with SN12C renal. Further, the TGI in the assay with HOP-62 NSCLC was determined as 35.8 µM; with NCI/ADR-RES ovarian it was 57.4 µM; in the assay on SK-OV-3 ovarian, 33.6 µM; with UACC-62 melanoma it was 25.5 µM; with UACC-257 melanoma it was 27 µM; in the assay with SR leukemia, 19.5 µM.

As for `CCOC(=O)NC(OCCN(C)C)(C(F)(F)F)C(F)(F)F`, the TGI in the assay with MOLT-4 leukemia, in the assay with HOP-92 NSCLC, with SK-MEL-2 melanoma, with SK-MEL-5 melanoma, in the assay with OVCAR-8 ovarian and with SN12C renal was > 100 µM each time. The TGI in the assay on HOP-62 NSCLC, in the assay on NCI/ADR-RES ovarian, in the assay on SK-OV-3 ovarian, with UACC-62 melanoma, with UACC-257 melanoma and in the assay with SR leukemia was > 100 µM throughout.

Regarding `CN(O)C(=O)c1ccc(OCc2cccc(Cl)c2)cc1`, the TGI is > 100 µM in the assay with MOLT-4 leukemia; > 100 µM in the assay with HOP-92 NSCLC; > 100 µM in the assay on SK-MEL-2 melanoma; > 100 µM in the assay with SK-MEL-5 melanoma; > 95.9 µM in the assay with OVCAR-8 ovarian; > 95.1 µM in the assay with SN12C renal. In addition, the TGI in the assay with HOP-62 NSCLC is > 100 µM; in the assay with NCI/ADR-RES ovarian it was > 89.4 µM; with SK-OV-3 ovarian, > 100 µM; in the assay on UACC-62 melanoma it was > 79.4 µM; with UACC-257 melanoma, > 100 µM; in the assay with SR leukemia it was > 72.4 µM.

For `CCOC(=O)CCN1C(=O)c2ccc(NC(=O)C(=O)O)cc2S1(=O)=O`, the TGI with MOLT-4 leukemia, with HOP-92 NSCLC, with SK-MEL-2 melanoma, in the assay on SK-MEL-5 melanoma, in the assay on OVCAR-8 ovarian and in the assay on SN12C renal was > 100 µM throughout. The TGI with HOP-62 NSCLC, with NCI/ADR-RES ovarian, with SK-OV-3 ovarian, with UACC-62 melanoma, in the assay with UACC-257 melanoma and with SR leukemia was > 100 µM in each case.

For the molecule `CCOC(=O)NC(Nc1cccc(F)c1)(C(F)(F)F)C(F)(F)F`, the TGI in the assay on MOLT-4 leukemia, with HOP-92 NSCLC, in the assay with SK-MEL-2 melanoma, in the assay on SK-MEL-5 melanoma, in the assay on OVCAR-8 ovarian and with SN12C renal was > 100 µM each time. Besides, the TGI in the assay on HOP-62 NSCLC, in the assay on NCI/ADR-RES ovarian, in the assay with SK-OV-3 ovarian, in the assay on UACC-62 melanoma, in the assay on UACC-257 melanoma and in the assay on SR leukemia was > 100 µM each time.

As to `CCCC[P+](CCCC)(CCCC)C(C(=O)OC)C(C(=O)OC)=C1SC(C(=O)OC)=C(C(=O)OC)S1` (centres undefined), the TGI with MOLT-4 leukemia, in the assay on HOP-92 NSCLC, in the assay with SK-MEL-2 melanoma, with SK-MEL-5 melanoma, in the assay on OVCAR-8 ovarian and in the assay with SN12C renal was > 100 µM throughout. For the same molecule, the TGI in the assay with HOP-62 NSCLC, in the assay on NCI/ADR-RES ovarian, in the assay on SK-OV-3 ovarian, with UACC-62 melanoma, in the assay on UACC-257 melanoma and in the assay with SR leukemia was > 100 µM throughout.

On to `COc1ccc(/C=C/C(=N/NC(=O)N/N=C(/C=C/c2ccc(OC)cc2)C(C)C)C(C)C)cc1`, for which the TGI with MOLT-4 leukemia, in the assay with HOP-92 NSCLC, in the assay on SK-MEL-2 melanoma, with SK-MEL-5 melanoma, in the assay on OVCAR-8 ovarian and in the assay on SN12C renal was > 100 µM throughout. Besides, the TGI in the assay with HOP-62 NSCLC, in the assay with NCI/ADR-RES ovarian, in the assay with SK-OV-3 ovarian, with UACC-62 melanoma, in the assay with UACC-257 melanoma and with SR leukemia was > 100 µM in each case.
